Reference: the supplement of paper PMC11061612

Tests used:
Experiment in all cases: combination Emax (second highest fraction inhibited in the dose matrix, 72 h); higher = more inhibition; extreme values may be limits of the assay
[1] = system: COLO-679 (Melanoma)
Summary of the method: (§1)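 Cell lines in DMEM/F12 or RPMI with 10% FBS were plated in 1536-well plates, held 24 hours at 37°C, 5% CO2, then given two-drug dose matrices for 72 hours (DMSO typically 0.2%). Viability was read by CellTiter-Glo 2.0 luminescence and scaled as inhibition from 0 (vehicle wells) to 1 (blank wells). Combination Emax is the second-highest inhibition in the matrix; Bliss excess is observed combination effect minus expected EA + EB − EA·EB, EA and EB being single-agent effects.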

[2] = system: KGN (Other Solid Carcinomas)
Summary of the method: as §1

[3] = system: EJM (Plasma Cell Myeloma)
Summary of the method: as §1

[4] = system: KOPN-8 (B-Lymphoblastic Leukemia)
Summary of the method: as §1

[5] = system: MV-4-11 (Acute Myeloid Leukemia)
Summary of the method: as §1

[6] = system: Hey (Ovarian Carcinoma)
Summary of the method: as §1

[7] = system: NCI-H1092 (Small Cell Lung Carcinoma)
Summary of the method: as §1

[8] = system: OE33 (Esophageal Adenocarcinoma)
Summary of the method: as §1

[9] = system: NCI-H522 (Lung Adenocarcinoma)
Summary of the method: as §1

[10] = system: MOLT-4 (T-Lymphoblastic Leukemia)
Summary of the method: as §1

[11] = system: OACM5-1 (Esophageal Adenocarcinoma)
Summary of the method: as §1

[12] = system: A4-Fuk (B-Lymphoblastic Leukemia)
Summary of the method: as §1

[13] = system: ALL-SIL (T-Lymphoblastic Leukemia)
Summary of the method: as §1

[14] = system: Ca-Ski (Cervical Carcinoma)
Summary of the method: as §1

[15] = system: ML-2 (Acute Myeloid Leukemia)
Summary of the method: as §1

[16] = system: ME-180 (Cervical Carcinoma)
Summary of the method: as §1

[17] = system: HCC1500 (Breast Carcinoma)
Summary of the method: as §1

[18] = system: MDA-MB-453 (Breast Carcinoma)
Summary of the method: as §1

[19] = system: NCI-H1993 (Lung Adenocarcinoma)
Summary of the method: as §1

[20] = system: SK-LU-1 (Lung Adenocarcinoma)
Summary of the method: as §1

Compound | combination Emax [1] | combination Emax [2] | combination Emax [3] | combination Emax [4] | combination Emax [5] | combination Emax [6] | combination Emax [7] | combination Emax [8] | combination Emax [9] | combination Emax [10] | combination Emax [11] | combination Emax [12] | combination Emax [13] | combination Emax [14] | combination Emax [15] | combination Emax [16] | combination Emax [17] | combination Emax [18] | combination Emax [19] | combination Emax [20]
Cn1cnc2c(F)c(Nc3ccc(Br)cc3Cl)c(C(=O)NOCCO)cc21 [Selumetinib] + CCN(CCO)CCCOc1ccc2c(Nc3cc(CC(=O)Nc4cccc(F)c4)[nH]n3)ncnc2c1 [AZD2811] (first compound max 10 µM, 7x7, partner max 1 µM) | 0.815 | 0.514 | 0.175 | 1 | 0.974 | 0.611 | 0.215 | 0.364 | 0.171 | 0.992 | 0.44 | 0.661 | 0.961 | 0.54 | 1 | 0.245 | 0.157 | 0.162 | 0.703 | 0.301
COc1nnc2ccc(N3CCC(c4ccc(OCCN5CCN(C)C(=O)[C@H]5C)cc4)CC3)nn12 [AZD5153] + C=CCn1c(=O)c2cnc(Nc3ccc(N4CCN(C)CC4)cc3)nc2n1-c1cccc(C(C)(C)O)n1 [AZD1775] (first compound max 1 µM, partner max 1 µM) | 0.505 | 0.781 | 0.867 | 1 | 1 | 0.655 | 0.684 | 0.435 | 0.51 | 1 | 0.869 | 0.967 | 0.98 | 0.791 | 1 | 0.68 | 0.402 | 0.731 | 0.545 | 0.442
CC(=O)c1c(C)c2cnc(Nc3ccc(N4CCNCC4)cn3)nc2n(C2CCCC2)c1=O [Palbociclib] + CC1(C)CCC(CN2CCN(c3ccc(C(=O)NS(=O)(=O)c4ccc(NCC5CCOCC5)c([N+](=O)[O-])c4)c(Oc4cnc5[nH]ccc5c4)c3)CC2)=C(c2ccc(Cl)cc2)C1 [Venetoclax] (first compound max 10 µM, 7x7, partner max 1 µM) | 0.0736 | 0.507 | 0.159 | 0.958 | 1 | 0.355 | 0.222 | 0.121 | 0.127 | 0.629 | 0.479 | 0.552 | 0.76 | 0.131 | 0.949 | 0.0846 | 0.545 | 0.275 | 0.403 | 0.279
Cc1c2c(nn1C)CSCc1cc(n(C)n1)CSc1cc(c3ccccc3c1)OCCCc1c(C(=O)O)n(C)c3c-2c(Cl)ccc13 [AZD5991] + C1CN(CCC1(C(=O)N[C@@H](CCO)C2=CC=C(C=C2)Cl)N)C3=NC=NC4=C3C=CN4 [Capivasertib] (first compound max 1 µM, 7x7, partner max 3 µM) | 0.19 | 0.329 | 0.977 | 0.901 | 1 | 0.156 | 0.534 | 0.112 | 0.507 | 0.92 | 0.969 | 1 | 1 | 0.609 | 1 | 0.517 | 0.377 | 0.61 | 0.461 | 0.303
NC1(C(=O)N[C@@H](CCO)c2ccc(Cl)cc2)CCN(c2ncnc3[nH]ccc23)CC1 [Capivasertib] + CCN(CCO)CCCOc1ccc2c(Nc3cc(CC(=O)Nc4cccc(F)c4)[nH]n3)ncnc2c1 [AZD2811] (first compound max 10 µM, 7x7, partner max 1 µM) | 0.31 | 0.688 | 0.43 | 0.86 | 0.954 | 0.471 | 0.353 | 0.202 | 0.226 | 0.997 | 0.763 | 0.878 | 0.941 | 0.465 | 1 | 0.7 | 0.265 | 0.599 | 0.605 | 0.195
CS(=O)(=O)CCNCc1ccc(-c2ccc3ncnc(Nc4ccc(OCc5cccc(F)c5)c(Cl)c4)c3c2)o1 [Lapatinib] + C[C@@H](Oc1cc(-c2cnn(C3CCNCC3)c2)cnc1N)c1c(Cl)ccc(F)c1Cl [Crizotinib] (first compound max 10 µM, 7x7, partner max 10 µM) | 0.68 | 0.944 | 0.937 | 0.978 | 0.978 | 0.865 | 0.604 | 0.909 | 0.457 | 0.966 | 0.889 | 0.976 | 1 | 0.969 | 0.983 | 0.81 | 0.854 | 0.531 | 0.94 | 0.451
NC1(C(=O)N[C@@H](CCO)c2ccc(Cl)cc2)CCN(c2ncnc3[nH]ccc23)CC1 [Capivasertib] + CC(=O)c1c(C)c2cnc(Nc3ccc(N4CCNCC4)cn3)nc2n(C2CCCC2)c1=O [Palbociclib] (first compound max 10 µM, 7x7, partner max 10 µM) | 0.324 | 0.724 | 0.391 | 0.809 | 0.861 | 0.578 | 0.177 | 0.259 | 0.172 | 0.736 | 0.721 | 0.722 | 0.46 | 0.462 | 0.593 | 0.629 | 0.239 | 0.589 | 0.647 | 0.4
Cc1c2c(nn1C)CSCc1cc(n(C)n1)CSc1cc(c3ccccc3c1)OCCCc1c(C(=O)O)n(C)c3c-2c(Cl)ccc13 [AZD5991] + CN(C)CCCOc1ccc(-c2ccc3ncc4c(c3c2)n(C2CCOCC2)c(=O)n4C)cn1 [AZD0156] (first compound max 1 µM, 7x7, partner max 1 µM) | 0.243 | 0.425 | 0.965 | 0.963 | 1 | 0.254 | 0.562 | 0.156 | 0.387 | 0.304 | 0.928 | 1 | 0.986 | 0.303 | 1 | 0.278 | 0.53 | 0.298 | 0.474 | 0.3
Cc1c2c(nn1C)CSCc1cc(n(C)n1)CSc1cc(c3ccccc3c1)OCCCc1c(C(=O)O)n(C)c3c-2c(Cl)ccc13 [AZD5991] + Cc1cc2ncnn2cc1Nc1ncc2c(n1)n(C1CCOCC1)c(=O)n2C [AZD7648] (first compound max 1 µM, 7x7, partner max 10 µM) | 0.259 | 0.563 | 0.971 | 0.936 | 1 | 0.316 | 0.583 | 0.237 | 0.362 | 0.429 | 0.923 | 1 | 1 | 0.331 | 1 | 0.338 | 0.465 | 0.381 | 0.492 | 0.399
CN(C)CCCOc1ccc(-c2ccc3ncc4c(c3c2)n(C2CCOCC2)c(=O)n4C)cn1 [AZD0156] + C[C@@H]1COCCN1C2=NC(=NC(=C2)C3(CC3)[S@](=N)(=O)C)C4=C5C=CNC5=NC=C4 [AZD6738] (first compound max 1 µM, 7x7, partner max 10 µM) | 0.749 | 0.848 | 0.894 | 0.927 | 0.992 | 0.84 | 0.174 | 0.788 | 0.0837 | 0.97 | 0.57 | 0.734 | 0.887 | 0.668 | 0.967 | 0.343 | 0.298 | 0.831 | 0.616 | 0.474
Cc1c2c(nn1C)CSCc1cc(n(C)n1)CSc1cc(c3ccccc3c1)OCCCc1c(C(=O)O)n(C)c3c-2c(Cl)ccc13 [AZD5991] + CC1(C)CCC(CN2CCN(c3ccc(C(=O)NS(=O)(=O)c4ccc(NCC5CCOCC5)c([N+](=O)[O-])c4)c(Oc4cnc5[nH]ccc5c4)c3)CC2)=C(c2ccc(Cl)cc2)C1 [Venetoclax] (first compound max 1 µM, 7x7, partner max 1 µM) | 0.388 | 0.263 | 0.959 | 0.936 | 1 | 0.133 | 0.989 | 0.21 | 0.443 | 0.857 | 0.917 | 1 | 1 | 0.682 | 1 | 0.286 | 1 | 0.346 | 0.325 | 0.258
NC1(C(=O)N[C@@H](CCO)c2ccc(Cl)cc2)CCN(c2ncnc3[nH]ccc23)CC1 [Capivasertib] + CC(C)n1c(=O)n(C)c2cnc3cc(F)c(-c4ccc(OCCCN5CCCCC5)nc4)cc3c21 [AZD1390] (first compound max 10 µM, 7x7, partner max 0.3 µM) | 0.225 | 0.414 | 0.292 | 0.627 | 0.722 | 0.225 | 0.2 | 0.185 | 0.192 | 0.682 | 0.71 | 0.786 | 0.389 | 0.433 | 0.71 | 0.636 | 0.165 | 0.56 | 0.595 | 0.195
